Source: US6764854B2, “Methods for generating doubled haploid plants” (Northwest Plant Breeding Company, priority 1998, dated 2004)
Several values for one entry are separate records, joined by “and”; a condition that tells them apart may be missing. Identical values can stand only once.

Key:
[1] = tested on: microspores of wheat cultivar Chris; experiment: Optimization of 2,4-D concentration, embryoid yield and green plants (Example 4); format: cell-based
Experimental: (§1) Pretreatment of Spikes. After removing the lower nodal section, the collected tillers are placed in an autoclaved sterile flask, containing 50 ml of sterile (autoclaved) distilled water and preferably 0.1% (w/v) 2-HNA and 10^−6 to 10^−5 M 2,4-D. The open end of a plastic bag (thin-walled, grocery store bag) is then wrapped around the neck of the flask and sealed around the neck with masking tape to prevent microbial contamination and excessive loss of water. The flask is then placed in an incubator set at the desired stress temperature, optionally 33° C., but the temperature employed may be higher or lower. The optimum period of pretreatment varies with the genotype, but is preferably from between about 0.5 hours and about 72 hours, depending on the temperature. A presently preferred temperature pretreatment regime is from about 48 hours to about 72 hours at a temperature of about 33° C. The flask containing tillers can also be stored in a refrigerator at 4° C. for up to 1 month before subjecting the microspores to temperature stress treatment. It is important that after the temperature stress treatment, the tillers should not be stored in a refrigerator at 4° C. because the microspore viability goes down sharply.
(§2) Culture of isolated microspores. Isolated microspores are cultured in liquid NPB 98-1 medium or liquid NPB-99 medium, preferably liquid NPB-99 medium, as a suspension culture. An aliquot of 2 ml media per 35 mm×10 mm Petri dish, or 5 ml media per 60 mm×15 mm Petri dish, at a density of approximately 1.5×10^4 microspores per ml is effective. Immature ovaries are added to the culture at a density of one per ml of medium immediately preceding the incubation. Ovaries are aseptically picked out from fresh and disinfected spikes. Ovaries of all genotypes are effective for the present invention, but the ovaries from varieties Chris or Pavon 76 are preferred for embryogenesis of all wheat varieties tested. The Petri dish is sealed with parafilm and incubated in the dark at 27° C.
(§3) When embryoids reach the size of 1 to 2 mm, they are transferred aseptically to solid 190-2 or 190-2(b) medium, preferably 190-2(b) medium, at a density of 25-30 embryoids in each 100×15 mm Petri dish. They are incubated under continuous fluorescent light at room temperature (22° C.). In approximately two weeks, green plantlets develop and are ready for transfer to soil. Green plants are raised in the greenhouse, much like plants grown from seeds. If plants appear to be haploid, colchicine can be applied to induce chromosome doubling. Seeds produced on any plants are instantly homozygous, and so can immediately be used for rapid evaluation and selection in breeding, for analyses in genetics research, or for selection and evaluation of transformants in biotechnology.
Experiments were conducted to optimize the amount of 2,4-D utilized to enhance androgenesis and regeneration of green plants. Plant material was treated in accordance with the methods set forth in Example 1, except as described herein. Tillers of wheat cultivar Chris were treated with 2,4-D at concentrations of 0.2, 22.1, or 221 mg/l plus a fixed dose of 2-HNA at 100 mg/l. Two tillers were utilized per treatment.
Tillers in flasks with 2-HNA, plus different 2,4-D doses were placed at 33° C. for 70 hours before blending to release microspores. Microspores were cultured in 60×15 mm Petri dishes, each containing 5 ml medium NPB 98-1 plus 1 mg/l 2,4-D and incubated at 27° C. The regeneration medium was 190-2. Five fresh, live, immature Chris ovaries per Petri dish were included in each Petri dish.

[2] = tested on: Pavon 76 microspores; experiment: Optimization of 2,4-D concentration, embryoid yield, green plants and doubled haploids (Example 5); format: cell-based, wheat
Experimental: as §1, §2, §3
(§4) Experiments were conducted to optimize the amount of 2,4-D utilized to induce androgenesis and regeneration of green plants. Plant material was treated in accordance with the methods set forth in Example 1, except as described herein. Spikes of wheat cultivar Pavon 76 were treated with 2,4-D at concentrations of 0, 0.2, 2.2, or 22.1 mg/l plus a fixed dose of 2-HNA at 100 mg/l. Two spikes were utilized per treatment.
Spikes were incubated in sterile flasks with 2-HNA plus different doses of 2,4-D. The flasks were incubated at 33° C. for 46 hours before blending to release microspores. Microspores were cultured in 6-cm Petri dishes, each containing 5 ml medium NPB 98-1 plus 0 or 0.2 mg/l 2,4-D and incubated at 27° C. The regeneration medium was 190-2. Five fresh, live, immature Chris ovaries per Petri dish were included in each Petri dish.

[3] = tested on: microspores of wheat cultivar Pavon 76; experiment: Optimization of 2-HNA concentration, embryoid yield and green plants (Example 3); format: cell-based
Experimental: as §1, §2, §3
as §4, with “2-HNA” for “2,4-D”, “stimulate” for “induce”, “Tillers” for “Spikes”, “100, 500” for “0.2, 2.2,”, “1000” for “22.1 mg/l plus a fixed dose of 2-HNA at 100”, “tillers” for “spikes”
Tillers were placed in sterile flasks containing 50 ml 2-HNA solution and incubated at 33° C. for 46 hours before blending to release microspores. Microspores were again cultured in 60×15 mm Petri dishes, each containing 5 ml medium NPB 98-1 and incubated at 27° C. The regeneration medium was 190-2. Five fresh, live, immature Pavon 76 ovaries per Petri dish were included in each Petri dish.

[4] = tested on: microspores of wheat cultivar Chris; experiment: Effect of 2-HNA concentration on embryoid induction and green plant regeneration (Example 2); format: cell-based
Experimental: as §1, §2, §3
Experiments were conducted to evaluate the effect of 2-HNA on embryoid induction and green plant regeneration. Plant material was treated in accordance with the methods set forth in Example 1, except as described herein. Tillers of wheat cultivar Chris were treated with 2-HNA at concentrations of 0, 1, 10 or 100 mg/l. Three tillers were utilized for each concentration of 2-HNA.
Chris tillers were placed in sterile flasks and incubated with 2-HNA dissolved in sterile water at 33° C. for 66 hours before blending to release the microspores. As an option to ease the work schedule, newly sampled tillers may be incubated with 2-HNA at 4° C. for up to 72 hrs prior to the 33° C. treatment. Isolated microspores were cultured in 60×15 mm Petri dishes each containing 5 ml of medium NPB 98-1, including 1 mg/l phenylacetic acid (PAA) and incubated at 27° C. The regeneration medium was 190-2. Five fresh, live, Chris ovaries per Petri dish were included in each Petri dish.

[5] = pretreatment 2,4-D 0.2 mg/l + 2-HNA 100 mg/l, mean
[6] = pretreatment 2,4-D 0.2 mg/l + 2-HNA 100 mg/l, single repeats
[7] = pretreatment 2,4-D 22.1 mg/l + 2-HNA 100 mg/l, mean
[8] = pretreatment 2,4-D 22.1 mg/l + 2-HNA 100 mg/l, single repeats
[9] = pretreatment 2,4-D 2.2 mg/l + 2-HNA 100 mg/l, mean
[10] = pretreatment 2,4-D 2.2 mg/l + 2-HNA 100 mg/l, single repeats
[11] = 2-HNA 100 mg/l, % of embryoids transferred to regeneration medium, single repeats
[12] = pretreatment 2-HNA 100 mg/l, 2,4-D 0 mg/l, mean

SMILES: O=C(O)COc1ccc(Cl)cc1Cl [2,4-D, 2,4-dichlorophenoxyacetic acid]
- 2,4-D concentration during the pretreatment at which number of induced embryoids and percentage of regenerated green plants were highest ([1]; plus 2-HNA 100 mg/l): 1 mg/L
- Number of embryoids ([1]; pretreatment 2,4-D 0.2 mg/l + 2-HNA 100 mg/l, 33° C. 70 hours, induction medium 2,4-D 1 mg/l, single repeats): 2088 and 2107
- Number of embryoids [1, 5]: 2098
- green plant (%) [1, 5]: 92%
- green plant (%) [1, 6]: 83% and 100%
- Number of embryoids ([1]; pretreatment 2,4-D 22.1 mg/l + 2-HNA 100 mg/l, 33° C. 70 hours, induction medium 2,4-D 1 mg/l, single repeats): 1908 and 1156
- Number of embryoids [1, 7]: 1532
- green plant (%) [1, 7]: 71%
- green plant (%) [1, 8]: 63% and 79%
- Number of embryoids ([1]; pretreatment 2,4-D 221 mg/l + 2-HNA 100 mg/l, 33° C. 70 hours, induction medium 2,4-D 1 mg/l, single repeats): 0
- Number of embryoids ([1]; pretreatment 2,4-D 221 mg/l + 2-HNA 100 mg/l, mean): 0
- 2,4-D concentration during the pretreatment at which number of induced embryoids and percentage of regenerated green plants were highest ([2]; plus 2-HNA 100 mg/l): 2.2 mg/L
- Number of embryoids ([2]; pretreatment 2,4-D 0.2 mg/l + 2-HNA 100 mg/l, induction medium 2,4-D 0.2 mg/l, single repeats): 1200 and 1121
- Number of embryoids [2, 5]: 1161
- green plant (%) [2, 5]: 9%
- green plant (%) [2, 6]: 9%
- Number of embryoids ([2]; pretreatment 2,4-D 2.2 mg/l + 2-HNA 100 mg/l, induction medium 2,4-D 0.2 mg/l, single repeats): 1675 and 1634
- Number of embryoids [2, 9]: 1655
- green plant (%) [2, 9]: 30%
- Doubled-Haploid % [2, 10]: 50% and 38%
- green plant (%) [2, 10]: 31% and 28%
- Number of embryoids ([2]; pretreatment 2,4-D 22.1 mg/l + 2-HNA 100 mg/l, induction medium 2,4-D 0.2 mg/l, single repeats): 1119 and 1012
- Number of embryoids [2, 7]: 1066
- green plant (%) [2, 7]: 18%
- Doubled-Haploid % [2, 8]: 17%

SMILES: O=C(O)c1cccnc1O [2-HNA, 2-hydroxynicotinic acid]
- green plant (%) [3, 11]: 60% and 67%
- # embryoids ([3]; 2-HNA 100 mg/l, mean): 1356
- green plant (%) ([3]; 2-HNA 100 mg/l, mean): 63%
- green plant (%) ([3]; 2-HNA 500 mg/l, % of embryoids transferred to regeneration medium, single repeats): 33%
- # embryoids ([3]; 2-HNA 500 mg/l, mean): 66
- green plant (%) ([3]; 2-HNA 500 mg/l, mean): 33%
- green plant (%) ([3]; 2-HNA 1000 mg/l, % of embryoids transferred to regeneration medium, single repeats): 40% and 22%
- # embryoids ([3]; 2-HNA 1000 mg/l, mean): 768
- green plant (%) ([3]; 2-HNA 1000 mg/l, mean): 31%
- 2-HNA concentration at which number of induced embryoids and percentage of regenerated green plants were highest ([3]; tested 0, 100, 500 or 1000 mg/l): 100 mg/L
- number of induced embryoids, dependence on concentration ([4]; 2-HNA 0, 1, 10 or 100 mg/l): increases with increasing concentrations of 2-HNA
- percentage of regenerated green plants, dependence on concentration ([4]; 2-HNA 0, 1, 10 or 100 mg/l): does not significantly differ
- green plant (%) ([4]; 2-HNA 1 mg/l, % of embryoids transferred to regeneration medium, single repeats): 100%
- Number of embryoids ([4]; 2-HNA 1 mg/l, mean): 118
- green plant (%) ([4]; 2-HNA 1 mg/l, mean): 100%
- green plant (%) ([4]; 2-HNA 10 mg/l, % of embryoids transferred to regeneration medium, single repeats): 94% and 100%
- Number of embryoids ([4]; 2-HNA 10 mg/l, mean): 322
- green plant (%) ([4]; 2-HNA 10 mg/l, mean): 97%
- Number of embryoids ([4]; 2-HNA 100 mg/l, 33° C. 66 hours, single repeats (rep 1, rep 2)): 1258 and 1217
- green plant (%) [4, 11]: 100%
- Number of embryoids ([4]; 2-HNA 100 mg/l, mean): 1238
- green plant (%) ([4]; 2-HNA 100 mg/l, mean): 100%
- Number of embryoids ([2]; pretreatment 2-HNA 100 mg/l, 2,4-D 0 mg/l, induction medium 2,4-D 0, 33° C. 46 hours, single repeats): 603 and 607
- Number of embryoids [2, 12]: 605
- green plant (%) [2, 12]: 19%
- green plant (%) ([2]; pretreatment 2-HNA 100 mg/l, 2,4-D 0 mg/l, single repeats): 13% and 25%
